According to ChEMBL document CHEMBL4507293 (2021):

What was measured:
[1] = molecular target: Casein kinase I isoform gamma-2 (Homo sapiens) (UniProt P78368); details: Compound concentration 100.0 nM
[2] = molecular target: Activin receptor type-1B (Homo sapiens) (UniProt P36896); details: Compound concentration 100.0 nM
[3] = molecular target: G protein-coupled receptor kinase 4 (Homo sapiens) (UniProt P32298); details: Compound concentration 100.0 nM
[4] = molecular target: Cyclin-dependent kinase 7 (Homo sapiens) (UniProt P50613); details: Compound concentration 100.0 nM
[5] = molecular target: Tyrosine-protein kinase SYK (Homo sapiens) (UniProt P43405); details: Compound concentration 100.0 nM
[6] = molecular target: Myosin light chain kinase 2, skeletal/cardiac muscle (Homo sapiens) (UniProt Q9H1R3); details: Compound concentration 100.0 nM
[7] = molecular target: Cyclin-dependent kinase 2 (Homo sapiens) (UniProt P24941); details: Compound concentration 100.0 nM
[8] = molecular target: Mitogen-activated protein kinase kinase kinase 12 (Homo sapiens) (UniProt Q12852); details: Compound concentration 100.0 nM
[9] = molecular target: Serine/threonine-protein kinase PknB (Mycobacterium tuberculosis) (UniProt P9WI81); details: Compound concentration 100.0 nM
[10] = molecular target: cGMP-dependent 3',5'-cyclic phosphodiesterase (Homo sapiens, UniProt O00408); test: Biochemical assay (PDE2A)
[11] = molecular target: Cyclin-dependent kinase 11A (Homo sapiens) (UniProt Q9UQ88); details: Compound concentration 100.0 nM
[12] = tested on: Hepatocyte growth factor receptor (Homo sapiens), P08581 [Y1235D]; details: Compound concentration 100.0 nM
[13] = molecular target: Serine/threonine-protein kinase NIM1 (Homo sapiens) (UniProt Q8IY84); details: Compound concentration 100.0 nM
[14] = molecular target: Transient receptor potential cation channel subfamily M member 6 (Homo sapiens) (UniProt Q9BX84); details: Compound concentration 100.0 nM
[15] = molecular target: Serine/threonine-protein kinase Sgk1 (Homo sapiens) (UniProt O00141); details: Compound concentration 100.0 nM
[16] = molecular target: Serine/threonine-protein kinase SIK1 (Homo sapiens) (UniProt P57059); details: Compound concentration 100.0 nM
[17] = molecular target: Mitogen-activated protein kinase 4 (Homo sapiens) (UniProt P31152); details: Compound concentration 100.0 nM
[18] = molecular target: Insulin receptor-related protein (Homo sapiens) (UniProt P14616); details: Compound concentration 100.0 nM
[19] = molecular target: Tyrosine-protein kinase Fgr (Homo sapiens) (UniProt P09769); details: Compound concentration 100.0 nM
[20] = molecular target: 5'-AMP-activated protein kinase catalytic subunit alpha-1 (Homo sapiens) (UniProt Q13131); details: Compound concentration 100.0 nM
[21] = molecular target: Cyclin-dependent kinase 9 (Homo sapiens) (UniProt P50750); details: Compound concentration 100.0 nM
[22] = molecular target: Cyclin-dependent kinase 2 homolog (Plasmodium falciparum (isolate 3D7)) (UniProt P61075); details: Compound concentration 100.0 nM
[23] = molecular target: Ephrin type-B receptor 6 (Homo sapiens) (UniProt O15197); details: Compound concentration 100.0 nM
[24] = molecular target: Serine/threonine-protein kinase BRSK1 (Homo sapiens) (UniProt Q8TDC3); details: Compound concentration 100.0 nM
[25] = molecular target: Tyrosine-protein kinase ZAP-70 (Homo sapiens) (UniProt P43403); details: Compound concentration 100.0 nM
[26] = molecular target: Tyrosine-protein kinase Lyn (Homo sapiens) (UniProt P07948); details: Compound concentration 100.0 nM
[27] = molecular target: Homeodomain-interacting protein kinase 1 (Homo sapiens) (UniProt Q86Z02); details: Compound concentration 100.0 nM
[28] = molecular target: Serine/threonine-protein kinase MARK1 (Homo sapiens) (UniProt Q9P0L2); details: Compound concentration 100.0 nM
[29] = molecular target: Activin receptor type-1 (Homo sapiens) (UniProt Q04771); details: Compound concentration 100.0 nM
[30] = molecular target: GABA-A receptor; anion channel (Rattus norvegicus) (UniProt O09028+P15431+P18506+P18508+P19969+P20236+P23574+P23576+P28471+P28473+P30191+P62813+P63079+P63138+Q91ZM7+Q9ES14); details: Compound concentration 10.0 uM
[31] = molecular target: Tyrosine-protein kinase ITK/TSK (Homo sapiens) (UniProt Q08881); details: Compound concentration 100.0 nM
[32] = tested on: Tyrosine-protein kinase ABL1 (Homo sapiens), P00519 [F317I]; details: Compound concentration 100.0 nM
[33] = molecular target: Mitogen-activated protein kinase 6 (Homo sapiens) (UniProt Q16659); details: Compound concentration 100.0 nM
[34] = molecular target: Cyclin-dependent kinase 14 (Homo sapiens) (UniProt O94921); details: Compound concentration 100.0 nM
[35] = molecular target: Leucine-rich repeat serine/threonine-protein kinase 2 (Homo sapiens) (UniProt Q5S007); details: Compound concentration 100.0 nM
[36] = molecular target: 1-phosphatidylinositol 3-phosphate 5-kinase (Homo sapiens) (UniProt Q9Y2I7); details: Compound concentration 100.0 nM
[37] = molecular target: Casein kinase II subunit alpha (Homo sapiens) (UniProt P68400); details: Compound concentration 100.0 nM
[38] = molecular target: Protein-tyrosine kinase 6 (Homo sapiens) (UniProt Q13882); details: Compound concentration 100.0 nM
[39] = molecular target: Tyrosine-protein kinase JAK1 (Homo sapiens) (UniProt P23458); details: Compound concentration 100.0 nM
[40] = molecular target: Serine/threonine-protein kinase PLK2 (Homo sapiens) (UniProt Q9NYY3); details: Compound concentration 100.0 nM
[41] = molecular target: Protein-tyrosine kinase 2-beta (Homo sapiens) (UniProt Q14289); details: Compound concentration 100.0 nM
[42] = molecular target: Cyclin-dependent kinase 5 (Homo sapiens) (UniProt Q00535); details: Compound concentration 100.0 nM
[43] = molecular target: Serine/threonine-protein kinase 10 (Homo sapiens) (UniProt O94804); details: Compound concentration 100.0 nM
[44] = molecular target: Serine/threonine-protein kinase 16 (Homo sapiens) (UniProt O75716); details: Compound concentration 100.0 nM

Insulin receptor-related protein (Homo sapiens), sequence (P14616 27-742 limits assumed): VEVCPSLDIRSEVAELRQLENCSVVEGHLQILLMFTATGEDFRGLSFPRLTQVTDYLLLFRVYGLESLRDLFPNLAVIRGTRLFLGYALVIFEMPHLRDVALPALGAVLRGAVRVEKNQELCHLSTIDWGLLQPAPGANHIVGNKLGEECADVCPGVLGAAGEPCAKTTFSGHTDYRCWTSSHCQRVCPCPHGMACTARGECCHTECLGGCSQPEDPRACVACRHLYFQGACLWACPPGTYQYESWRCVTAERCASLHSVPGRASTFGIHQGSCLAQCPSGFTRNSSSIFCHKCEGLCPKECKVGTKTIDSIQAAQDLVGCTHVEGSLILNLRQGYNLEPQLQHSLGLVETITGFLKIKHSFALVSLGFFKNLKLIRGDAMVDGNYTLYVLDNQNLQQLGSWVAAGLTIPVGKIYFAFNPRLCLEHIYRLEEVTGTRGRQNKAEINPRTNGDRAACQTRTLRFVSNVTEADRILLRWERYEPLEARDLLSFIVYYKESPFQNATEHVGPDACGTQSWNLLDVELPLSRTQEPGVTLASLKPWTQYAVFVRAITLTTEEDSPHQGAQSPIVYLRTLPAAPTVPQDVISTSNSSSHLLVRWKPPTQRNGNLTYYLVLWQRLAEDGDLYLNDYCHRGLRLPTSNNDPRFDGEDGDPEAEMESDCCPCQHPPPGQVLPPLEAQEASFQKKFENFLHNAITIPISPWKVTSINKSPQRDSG
Insulin receptor-related protein (Homo sapiens), sequence (P14616 747-1297 limits assumed): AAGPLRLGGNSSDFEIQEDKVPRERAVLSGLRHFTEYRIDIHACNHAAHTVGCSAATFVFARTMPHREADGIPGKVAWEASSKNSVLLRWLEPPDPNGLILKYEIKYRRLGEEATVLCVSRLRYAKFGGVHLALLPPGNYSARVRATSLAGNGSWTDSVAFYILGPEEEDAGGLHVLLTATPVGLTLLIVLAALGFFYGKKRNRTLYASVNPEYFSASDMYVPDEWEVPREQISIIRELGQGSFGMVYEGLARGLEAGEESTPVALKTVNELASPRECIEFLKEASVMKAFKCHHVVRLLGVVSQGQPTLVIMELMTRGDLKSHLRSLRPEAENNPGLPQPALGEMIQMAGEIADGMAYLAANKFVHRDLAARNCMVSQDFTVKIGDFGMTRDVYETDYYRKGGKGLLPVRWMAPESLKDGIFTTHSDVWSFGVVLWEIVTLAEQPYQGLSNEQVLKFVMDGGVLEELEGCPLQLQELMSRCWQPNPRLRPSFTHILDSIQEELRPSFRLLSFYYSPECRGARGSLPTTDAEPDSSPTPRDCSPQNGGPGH
Activin receptor type-1 (Homo sapiens), sequence (Q04771 whole entry): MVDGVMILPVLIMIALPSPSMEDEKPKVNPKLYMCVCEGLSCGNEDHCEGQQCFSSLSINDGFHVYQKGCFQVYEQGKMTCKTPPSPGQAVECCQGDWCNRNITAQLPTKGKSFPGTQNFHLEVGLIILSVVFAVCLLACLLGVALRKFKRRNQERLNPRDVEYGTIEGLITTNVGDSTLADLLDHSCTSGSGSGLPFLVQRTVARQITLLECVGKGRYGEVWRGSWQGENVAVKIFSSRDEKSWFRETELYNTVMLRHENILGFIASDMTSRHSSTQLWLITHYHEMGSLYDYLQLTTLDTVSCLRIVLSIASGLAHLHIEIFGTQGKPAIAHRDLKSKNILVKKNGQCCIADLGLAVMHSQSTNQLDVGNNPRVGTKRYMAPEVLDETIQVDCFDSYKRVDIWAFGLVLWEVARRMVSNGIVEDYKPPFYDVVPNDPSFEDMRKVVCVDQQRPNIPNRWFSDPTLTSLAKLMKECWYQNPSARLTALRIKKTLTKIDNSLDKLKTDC
Homeodomain-interacting protein kinase 1 (Homo sapiens), sequence (Q86Z02 whole entry, looked up): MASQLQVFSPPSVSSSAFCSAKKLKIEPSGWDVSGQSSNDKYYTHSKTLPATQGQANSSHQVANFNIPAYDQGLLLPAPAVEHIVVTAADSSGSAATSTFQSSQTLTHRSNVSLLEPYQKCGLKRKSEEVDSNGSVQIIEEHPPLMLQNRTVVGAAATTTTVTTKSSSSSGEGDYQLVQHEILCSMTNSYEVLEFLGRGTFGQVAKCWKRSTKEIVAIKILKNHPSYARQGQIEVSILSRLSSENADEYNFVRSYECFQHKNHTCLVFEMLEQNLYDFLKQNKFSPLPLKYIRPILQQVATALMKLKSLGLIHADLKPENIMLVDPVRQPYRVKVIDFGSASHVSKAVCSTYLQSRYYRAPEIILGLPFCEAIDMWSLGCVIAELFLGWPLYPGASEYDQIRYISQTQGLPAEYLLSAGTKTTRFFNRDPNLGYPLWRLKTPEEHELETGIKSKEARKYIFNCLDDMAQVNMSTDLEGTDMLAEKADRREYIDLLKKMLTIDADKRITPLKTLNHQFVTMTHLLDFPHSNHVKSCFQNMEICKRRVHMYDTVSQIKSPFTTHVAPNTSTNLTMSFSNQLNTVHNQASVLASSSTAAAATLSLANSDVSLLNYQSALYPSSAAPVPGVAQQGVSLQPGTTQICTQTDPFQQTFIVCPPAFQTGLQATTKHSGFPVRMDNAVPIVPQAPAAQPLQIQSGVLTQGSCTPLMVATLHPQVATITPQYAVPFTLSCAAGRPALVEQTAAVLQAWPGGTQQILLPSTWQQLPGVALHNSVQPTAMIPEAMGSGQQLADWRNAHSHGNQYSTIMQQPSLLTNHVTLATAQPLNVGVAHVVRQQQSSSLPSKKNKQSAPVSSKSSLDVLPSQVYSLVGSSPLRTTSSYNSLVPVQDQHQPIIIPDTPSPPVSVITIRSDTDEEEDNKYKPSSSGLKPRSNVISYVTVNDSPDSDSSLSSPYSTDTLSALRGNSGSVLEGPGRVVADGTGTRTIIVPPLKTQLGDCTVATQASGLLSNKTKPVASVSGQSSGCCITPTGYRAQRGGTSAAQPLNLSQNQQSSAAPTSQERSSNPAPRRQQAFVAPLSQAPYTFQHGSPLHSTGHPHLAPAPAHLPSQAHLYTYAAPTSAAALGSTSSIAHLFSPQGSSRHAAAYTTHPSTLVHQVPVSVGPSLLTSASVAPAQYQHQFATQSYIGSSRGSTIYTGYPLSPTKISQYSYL
Casein kinase II subunit alpha (Homo sapiens), sequence (P68400 whole entry, looked up): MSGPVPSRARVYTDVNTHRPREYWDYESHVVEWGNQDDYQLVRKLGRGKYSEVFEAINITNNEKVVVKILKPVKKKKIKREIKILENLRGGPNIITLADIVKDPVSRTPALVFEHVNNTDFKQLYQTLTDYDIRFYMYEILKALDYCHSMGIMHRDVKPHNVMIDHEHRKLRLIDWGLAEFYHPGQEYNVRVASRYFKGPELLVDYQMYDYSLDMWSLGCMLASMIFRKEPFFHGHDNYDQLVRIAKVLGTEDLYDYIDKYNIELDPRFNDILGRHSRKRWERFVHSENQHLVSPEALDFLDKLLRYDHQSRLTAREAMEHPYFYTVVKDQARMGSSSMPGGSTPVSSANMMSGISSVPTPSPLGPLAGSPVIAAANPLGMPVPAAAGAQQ
Protein-tyrosine kinase 6 (Homo sapiens), sequence (Q13882 whole entry, looked up): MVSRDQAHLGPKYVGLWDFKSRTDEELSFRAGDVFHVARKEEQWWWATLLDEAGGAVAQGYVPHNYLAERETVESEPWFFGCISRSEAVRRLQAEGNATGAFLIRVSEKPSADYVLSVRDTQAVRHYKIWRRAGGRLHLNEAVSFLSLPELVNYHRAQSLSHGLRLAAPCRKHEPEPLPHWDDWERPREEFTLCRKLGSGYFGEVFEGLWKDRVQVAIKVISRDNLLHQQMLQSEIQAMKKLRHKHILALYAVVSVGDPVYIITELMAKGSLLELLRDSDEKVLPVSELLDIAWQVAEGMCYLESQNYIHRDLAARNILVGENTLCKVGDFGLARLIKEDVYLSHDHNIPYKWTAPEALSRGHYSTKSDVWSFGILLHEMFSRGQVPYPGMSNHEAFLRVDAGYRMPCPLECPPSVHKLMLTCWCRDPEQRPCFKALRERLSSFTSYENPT
Mitogen-activated protein kinase 6 (Homo sapiens), sequence (Q16659 whole entry): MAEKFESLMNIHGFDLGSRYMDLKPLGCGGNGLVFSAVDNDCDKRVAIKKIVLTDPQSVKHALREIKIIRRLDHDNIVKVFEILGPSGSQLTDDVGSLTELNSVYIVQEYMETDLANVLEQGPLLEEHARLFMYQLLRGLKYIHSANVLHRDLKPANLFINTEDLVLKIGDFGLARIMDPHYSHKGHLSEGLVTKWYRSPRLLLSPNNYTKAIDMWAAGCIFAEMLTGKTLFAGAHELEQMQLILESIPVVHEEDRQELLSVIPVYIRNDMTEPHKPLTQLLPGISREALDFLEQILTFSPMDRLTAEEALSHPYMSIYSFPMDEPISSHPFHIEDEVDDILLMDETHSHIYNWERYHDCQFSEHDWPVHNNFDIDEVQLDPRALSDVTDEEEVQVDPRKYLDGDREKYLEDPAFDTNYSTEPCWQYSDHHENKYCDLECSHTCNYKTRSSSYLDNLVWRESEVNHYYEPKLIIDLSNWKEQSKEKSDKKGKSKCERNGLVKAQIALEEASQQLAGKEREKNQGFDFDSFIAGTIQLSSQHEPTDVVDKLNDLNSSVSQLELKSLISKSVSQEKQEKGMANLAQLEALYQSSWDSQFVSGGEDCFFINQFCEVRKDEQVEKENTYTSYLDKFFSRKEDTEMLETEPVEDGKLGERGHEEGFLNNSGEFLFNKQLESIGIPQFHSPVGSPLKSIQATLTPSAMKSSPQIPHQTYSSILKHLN
Cyclin-dependent kinase 9 (Homo sapiens), sequence (P50750 whole entry): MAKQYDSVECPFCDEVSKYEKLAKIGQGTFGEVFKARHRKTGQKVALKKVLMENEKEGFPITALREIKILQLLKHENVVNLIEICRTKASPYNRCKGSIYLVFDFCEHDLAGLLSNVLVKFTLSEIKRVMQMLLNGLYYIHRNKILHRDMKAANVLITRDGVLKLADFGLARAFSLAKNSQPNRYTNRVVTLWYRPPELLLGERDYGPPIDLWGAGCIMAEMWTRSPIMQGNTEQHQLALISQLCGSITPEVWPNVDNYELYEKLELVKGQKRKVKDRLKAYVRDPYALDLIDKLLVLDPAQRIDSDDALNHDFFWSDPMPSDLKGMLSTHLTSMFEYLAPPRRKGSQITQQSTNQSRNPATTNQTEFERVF

CC(C)CC(=O)N1CCc2nc(-c3ccc(Br)cc3)nc(N(C)Cc3ccccc3)c2C1 [THPP-1-NC]
residual activity [1]: 86%
residual activity [2]: 89%
residual activity [3]: 75%
residual activity [4]: 65%
residual activity [5]: 100%
residual activity [6]: 96%
residual activity [7]: 80%
residual activity [8]: 90%
residual activity [9]: 97%
Ki [10]: > 100 µM (not active)
residual activity [11]: 100%
residual activity [12]: 100%
residual activity [13]: 100%
residual activity [14]: 100%
residual activity [15]: 99%
residual activity [16]: 91%
residual activity [17]: 100%
residual activity [18]: 100%
residual activity [19]: 99%
residual activity [20]: 100%
residual activity [21]: 100%
residual activity [22]: 100%
residual activity [23]: 91%
residual activity [24]: 100%
residual activity [25]: 91%
residual activity [26]: 88%
residual activity [27]: 64%
residual activity [28]: 92%
residual activity [29]: 100%
inhibition [30]: -4.66%
residual activity [31]: 100%
residual activity [32]: 100%
residual activity [33]: 100%
residual activity [34]: 100%
residual activity [35]: 100%
residual activity [36]: 91%
residual activity [37]: 100%
residual activity [38]: 100%
residual activity [39]: 71%
residual activity [40]: 100%
residual activity [41]: 100%
residual activity [42]: 100%
residual activity [43]: 100%
residual activity [44]: 100%

COCCOc1nc(-c2ccc(Cl)nc2)nc2c1CN(C(=O)c1ncn3ccccc13)CC2 [THPP-1]
residual activity [1]: 94%
residual activity [2]: 86%
residual activity [3]: 73%
residual activity [4]: 77%
residual activity [5]: 100%
residual activity [6]: 94%
residual activity [7]: 82%
residual activity [8]: 97%
residual activity [9]: 86%
Ki [10]: 1.2 µM (not active)
residual activity [11]: 100%
residual activity [12]: 100%
residual activity [13]: 100%
residual activity [14]: 100%
residual activity [15]: 91%
residual activity [16]: 100%
residual activity [17]: 100%
residual activity [18]: 100%
residual activity [19]: 100%
residual activity [20]: 100%
residual activity [21]: 100%
residual activity [22]: 100%
residual activity [23]: 78%
residual activity [24]: 100%
residual activity [25]: 95%
residual activity [26]: 73%
residual activity [27]: 90%
residual activity [28]: 100%
residual activity [29]: 100%
inhibition [30]: 15%
residual activity [31]: 100%
residual activity [32]: 100%
residual activity [33]: 100%
residual activity [34]: 100%
residual activity [35]: 100%
residual activity [36]: 90%
residual activity [37]: 99%
residual activity [38]: 100%
residual activity [39]: 76%
residual activity [40]: 100%
residual activity [41]: 100%
residual activity [42]: 100%
residual activity [43]: 100%
residual activity [44]: 100%
